Like-named read-outs stand apart in the source and are kept apart here.
Columns and labels:
[1] = test system: L. infantum promastigote forms; assay: In vitro activity against promastigote forms; format: cell-based; details: for Selectivity Index Promastigote Forms: J774.2 Macrophage IC50/Parasite IC50; for IC50: 48 h, 27 °C, means of three separate experiments, read-out: Compound IC50 Promastigote Forms
Experimental: (§1) Three Leishmania species were studied, each one as a pathogenic agent for each clinical form: L. donovani for VL, L. infantum for CL, and L. braziliensis for ML.
(§2) In order to perform this experiment, promastigotes were harvested in 24-well microplates and different drug concentrations were added in order to reach 12.5, 25, 50, and 100 µM and maintained at 27 °C for 48 h. They were counted after that time was elapsed in a Neubauer haemocytrometric chamber.

[2] = test system: L. donovani promastigote forms; assay: In vitro activity against promastigote forms; format: cell-based; details: for Selectivity Index Promastigote Forms: J774.2 Macrophage IC50/Parasite IC50; for IC50: 48 h, 27 °C, means of three separated experiments, read-out: Compound IC50 Promastigote Forms
Experimental: as §1, §2

[3] = test system: L. braziliensis promastigote forms; assay: In vitro activity against promastigote forms; format: cell-based; details: for Selectivity Index Promastigote Forms: J774.2 Macrophage IC50/Parasite IC50; for IC50: 48 h, 27 °C, means of three separate experiments, read-out: Compound IC50 Promastigote Forms
Experimental: as §1, §2

[4] = test system: J774.2 macrophage cell line; assay: Macrophage cytotoxicity; format: cell-based; details: J774.2 macrophages, means of three separate experiments, read-out: Macrophage Toxicity IC50
Excerpt: Macrophages are cells naturally infected by Leishmania parasites. For that reason, they were used as host cell models, specifically the J774.2 macrophage cell line [European Collection of Authenticated Cell Cultures (ECACC) number 91051511]. Cells were used to test the cytotoxicity of the new compound (establishing IC50 via testing different drug concentrations on cells) and they were used for parasite infectivity assays.

[5] = test system: L. infantum Fe-SOD; assay: SOD inhibition assay (Beyer and Fridovich method); format: biochemical; details: L. infantum excreted Fe-SOD
Excerpt: Superoxide dismutase (SOD) is a key enzyme for cell survival against oxidative stress. Host cells induce oxidative bursts to create reactive oxygen species (ROS) within parasite cells that are toxic to them. For that reason, Leishmania cells rely on SOD to counteract this defense. While vertebrate SOD is linked to a copper, zinc (Cu/Zn-SOD), or manganese atom (Mn-SOD), trypanosomatid SOD is linked to an iron atom (Fe-SOD). This difference makes SOD a perfect target for drugs: if they are able to reduce its activity, cell survival will be compromised. For testing, if drugs are able to reduce this enzymatic activity, promastigotes are largely harvested and then stressed in the same culture medium without calf serum, in order to trigger stress and make them excrete SOD. This SOD is collected and semi-purified by a method described in Martín-Montes et al. 2017 [10]. Excreted Fe-SOD was mixed with the different reagents of the Beyer and Fridovich method and measured in a UV spectrophotometer twice. The second measurement took place after 10 min under direct light and constant stirring. Commercial human SOD (Cu/Zn-SOD) (Sigma®, St. Louis, MO, USA) activity was also measured for comparison.

[6] = test system: L. infantum amastigote forms; assay: In vitro activity against amastigote forms in J774.2 macrophages; format: cell-based; details: for Selectivity Index Amastigote Forms: J774.2 Macrophage IC50/Parasite IC50; for IC50: in J774.2 macrophages, means of three separate experiments, read-out: Compound IC50 Amastigote Forms
Experimental: (§3) A similar method was used for the amastigote assay. First, J774.2 macrophages were harvested in 24-well microplates with round coverslips at the bottom, where cells will attach. Once cells are fixated, they are infected with promastigotes (10 per each macrophage cell) and compounds were added to reach the same final concentrations as in the previous experiment. After one day, promastigotes transform into amastigotes and microplates are maintained for two days at 37 °C. Once that time is elapsed, coverslips are collected and fixated to a microscope slide and dyed with Giemsa. Amastigotes are then counted using a microscope from a total of 200 random macrophages.

[7] = test system: L. infantum; assay: Metabolite excretion (1H-NMR of supernatants); format: cell-based; details: IC25, 72 h, vs untreated
Excerpt: Active compounds can trigger metabolic alterations within parasite mitochondria. Those alterations can be proven by observing alterations in the excreted metabolites quantity. Trypanosomatids excrete different metabolites to the medium in order to get rid of the carbonate skeleton instead of oxidizing glucose to CO2 and water as vertebrates do. Each metabolite is produced in a certain area of the mitochondrion and by a certain enzyme, thus, it can be inferred that these particular zones or enzymes are being affected by drug action. For this experiment, cultures of each species with an initial concentration of 5 × 10^5 cells/mL were stored at 27 °C for 72 h with IC25 as the test dosage. After this time elapsed, cultures were centrifuged at 400× g for 10 min and supernatants were collected and examined by ^1H-NMR.

[8] = test system: L. donovani amastigote forms; assay: In vitro activity against amastigote forms in J774.2 macrophages; format: cell-based; details: for Selectivity Index Amastigote Forms: J774.2 Macrophage IC50/Parasite IC50; for IC50: in J774.2 macrophages, means of three separated experiments, read-out: Compound IC50 Amastigote Forms
Experimental: as §3

[9] = test system: L. braziliensis amastigote forms; assay: as above; format: cell-based
Experimental: as §3

Compound	Selectivity Index Promastigote Forms [1]	IC50 ([1]; Leishmania infantum)	Selectivity Index Promastigote Forms [2]	IC50 ([2]; Leishmania donovani)	Selectivity Index Promastigote Forms [3]	IC50 ([3]; Leishmania braziliensis)	IC50 ([4]; Mus musculus)	other results
c1cc2cc(c1)CNCCCNCCCNCCCNC2 [mB333, 3,7,11,15 Tetraaza-1(2,6)-benzenacyclohexadecaphane]	11	86.1 ± 3.7 µM	9	106 ± 7.5 µM	4	210 ± 5.3 µM	916 ± 51.6 µM	–
c1cc2nc(c1)CNCCCNCCCNCCCNCCCNCCCNC2 [Py33333]	176	8.51 ± 0.6 µM	21	70.5 ± 5.2 µM	41	36.5 ± 1.1 µM	1500 ± 75.3 µM	Fe-SOD activity inhibition (in words) [5]: no inhibition; Selectivity Index Amastigote Forms [6]: 882; IC50 ([6]; Leishmania infantum): 1.7 ± 0.2 µM; Acetate production and excretion variation [7]: -20.61%; D-lactate production and excretion variation [7]: -19.58%; L-alanine production and excretion variation [7]: -19.83%; Pyruvate production and excretion variation [7]: -22.89%; Succinate production and excretion variation [7]: -20.30%
c1cc2nc(c1)CNCCCNCCCNCCCNC2 [Py333]	10	30.4 ± 1.4 µM	1549	0.2 µM	12	26.2 ± 1.1 µM	310 ± 43.8 µM	Selectivity Index Amastigote Forms [8]: 18; IC50 ([8]; Leishmania donovani): 16.8 ± 0.5 µM
Glucantime [reference compound]	3.5	–	7	–	3	–	–	IC50 [1]: 50.1 ± 2.3 µM; IC50 [2]: 23.7 ± 0.8 µM; IC50 [3]: 51.4 ± 2.5 µM; IC50 [4]: 176 ± 10.6 µM; Selectivity Index Amastigote Forms [8]: 2; IC50 [8]: 76.4 ± 4.1 µM; Selectivity Index Amastigote Forms [6]: 2; IC50 [6]: 84.6 ± 4.3 µM; Selectivity Index Amastigote Forms ([9]; J774.2 Macrophage IC50/Parasite IC50): 1.7; IC50 ([9]; in J774.2 macrophages, means of three separate experiments, read-out: Compound IC50 Amastigote Forms): 103 µM
c1cc2cc(c1)CNCCCNCCNCCNCCCNC2 [mB3223]	23	63.4 ± 2.4 µM	11	126 ± 3.8 µM	93	15.6 ± 0.7 µM	1450 ± 89.7 µM	–
c1cc2nc(c1)CNCCCNCCNCCCNCCNCCCNC2 [Py32323]	1	90.6 ± 3.8 µM	1	130 ± 9.5 µM	–	1630 ± 76.4 µM	85.4 ± 4.6 µM	–
c1cc2nc(c1)CNCCCNCCCNCCNCCCNCCCNC2 [Py33233]	3	484 ± 10.7 µM	2	583 ± 6.9 µM	3	507 ± 8.3 µM	1290 ± 77.5 µM	–
c1cc2ccc1CNCCNCCCNCCNC2 [pB232]	2	367 ± 10.5 µM	1	743 ± 23.6 µM	26	27.2 ± 0.9 µM	719 ± 20.5 µM	–

Source: paper PMC10059905, “The Bioactivity of Xylene, Pyridine, and Pyrazole Aza Macrocycles against Three Representative Leishmania Species” (Pharmaceutics, 2023)
